Like-named read-outs stand apart in the source and are kept apart here.
Target: T1, RANTES/MIP-1α chemokine receptor (CCR1) in THP-1 cell membranes (Homo sapiens, UniProt P32246)
T1 construct: Membranes were prepared from THP-1 cells (ATCC #TIB202); host or cells: THP-1 cells (membrane preparation)
T1 sequence (P32246 1-355): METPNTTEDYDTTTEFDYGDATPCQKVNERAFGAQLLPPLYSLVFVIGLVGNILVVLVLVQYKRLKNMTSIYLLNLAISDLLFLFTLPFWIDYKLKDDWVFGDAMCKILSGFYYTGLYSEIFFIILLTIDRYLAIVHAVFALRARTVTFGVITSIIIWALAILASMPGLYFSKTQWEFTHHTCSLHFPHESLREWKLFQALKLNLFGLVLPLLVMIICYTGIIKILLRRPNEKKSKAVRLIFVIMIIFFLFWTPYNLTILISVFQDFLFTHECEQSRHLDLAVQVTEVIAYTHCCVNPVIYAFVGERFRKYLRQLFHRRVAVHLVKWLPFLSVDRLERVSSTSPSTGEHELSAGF
Experiment: Receptor binding assay: 125I-RANTES or 125I-MIP-1α binding to THP-1 cell membranes

[1] = inhibitor concentration required for 50% inhibition of specific binding, 125I-RANTES or 125I-MIP-1α as ligand, THP-1 cell membranes, read-out: IC50

Compound | IC50 [1] [µM] | IC50 [µM]
4-(4-Chlorophenyl)-1-[3-(7-diethylaminocarbonylmethyloxy-5,11-dihydro[1]benzoxepino[2,3-b]pyridin-5-ylidene)propyl]piperidin-4-ol [Example 263] | < 1 | 
4-(4-Chlorophenyl)-1-[3-(5,11-dihydro-7-ethoxycarbonylmethyloxy[1]benzoxepino[2,3-b]pyridin-5-ylidene)propyl]piperidin-4-ol [Example 48] | < 1 | 
CC(C)(O)c1ccc2c(c1)C(=CCCN1CCC(C(=O)O)(c3ccc(Cl)cc3)CC1)c1cccnc1CO2 [Example 459, 4-(4-Chloro-phenyl)-1-{3-[7-(1-hydroxy-1-methyl-ethyl)-11H-10-oxa-1-aza-dibenzo[a,d]cyclohepten-5-ylidene]-propyl}-piperidine-4-carboxylic acid] | < 10 | 
1-[3-(5,11-Dihydro-7-methoxy[1]benzoxepino[2,3-b]pyridin-5-ylidene)propyl]-4-phenylpiperidine [Example 64] | < 1 | 
CC(C)(O)c1ccc2c(c1)C(=CCCN1CCN(c3ccc(Cl)cc3C#N)CC1)c1cccnc1CO2 [Example 540, 5-Chloro-2-(4-{3-[7-(1-hydroxy-1-methyl-ethyl)-11H-10-oxa-1-aza-dibenzo[a,d]cyclohepten-5-ylidene]-propyl}-piperazin-1-yl)-benzonitrile] | < 10 | 
CC(C)(O)c1ccc2c(c1)C(=CCCN1CCC(N(Cc3ccc(Cl)cc3)S(C)(=O)=O)C1)c1cccnc1CO2 (stereo not shown) [Example 571, N-(4-Chloro-benzyl)-N-(1-{3-[7-(1-hydroxy-1-methyl-ethyl)-11H-10-oxa-1-aza-dibenzo[a,d]cyclohepten-5-ylidene]-propyl}-pyrrolidin-3-yl)-methanesulfonamide] | < 10 | 
CC(C)(C)C(=O)OCOC(=O)c1ccc2c(c1)C(=CCCN1CCC(O)(c3ccc(Cl)cc3)CC1)c1cccnc1CO2 [Example 432, 4-(4-Chlorophenyl)-1-[3-(5,11-dihydro-7-(1-2,2-dimethylpropionyl-oxymethyl)-oxycarbonyl-[1]benzoxepino[2,3-b]pyridin-5-ylidene)propyl]piperidine-4-ol] | < 1 | 
CCC(=O)NC1CN(CCC=C2c3cc(C(C)(C)O)ccc3OCc3ncccc32)CCC1(O)c1ccc(Cl)cc1 (stereo not shown) [Example 478, N-[4-(4-Chloro-phenyl)-4-hydroxy-1-{3-[7-(hydroxyl-1-methyl-ethyl)-11H-10-oxa-1-aza-dibenzo[a,d]cyclohepten-5-ylidene]-propyl}-piperidin-3-yl)-propionamide] | < 10 | 
COC1(c2ccc(Cl)cc2)CCN(CCC=C2c3cc(C(C)(C)O)ccc3OCc3ncccc32)CC1O (stereo not shown) [Example 474, 4-(4-Chloro-phenyl)-1-{3-[7-(1-hydroxy-1-methyl-ethyl)-11H-10-oxa-1-aza-dibenzo[a,d]cyclohepten-5-ylidene]-propyl}-4-methoxy-piperidin-3-ol] | < 1 | 
CC(C)(O)c1ccc2c(c1)C(=CCCN1CCC(N(Cc3ccc(Cl)cc3)C(=O)C3CCCCC3)C1)c1cccnc1CO2 (stereo not shown) [Example 565, Cyclohexanecarboxylic acid (4-chloro-benzyl)-(1-{3-[7-(1-hydroxy-1-methyl-ethyl)-11H-10-oxa-1-aza-dibenzo[a,d]cyclohepten-5-ylidene]-propyl}-pyrrolidin-3-yl)-amide] | < 10 | 
CC(C)(Oc1ccc2c(c1)C(=CCCN1CCC(O)(c3ccc(Cl)cc3)C(C)(C)C1)c1cccnc1CO2)C(N)=O (stereo not shown) [Example 513, 2-(5-{3-[4-(4-Chloro-phenyl)-4-hydroxy-3,3-dimethyl-piperidin-1-yl]-propylidene}-5,11-dihydro-10-oxa-1-aza-dibenzo[a,d]cyclohepten-7-yloxy)-2-methyl-propionamide] | < 1 | 
1-[3-(5,11-Dihydro-7-methoxy[1]benzoxepino[2,3-b]pyridin-5-ylidene)propyl]-4-(4-hydroxyphenyl)piperidine [Example 183] | < 1 | 
4-(4-Chlorophenyl)-1-[3-(5,11-dihydro-7-morpholinocarbonylmethyloxy[1]benzoxepino[2,3-b]pyridin-5-ylidene)propyl]piperidin-4-ol [Example 135] | < 1 | 
CC(C)(CO)Oc1ccc2c(c1)C(=CCCN1CCC(O)(c3ccc(Cl)cc3)C(C)(C)C1)c1cccnc1CO2 (stereo not shown) [Example 511, 4-(4-Chloro-phenyl)-1-{3-[7-(2-hydroxy-1,1-dimethyl-ethoxy)-11H-10-oxa-1-aza-dibenzo[a,d]cyclohepten-5-ylidene]-propyl}-3,3-dimethyl-piperidin-4-ol] | < 1 | 
4-(4-Chlorophenyl)-1-[3-(5,11-dihydro-7-dimethylaminocarbonylmethyloxy[1]benzoxepino[2,3-b]pyridin-5-ylidene)propyl]piperidine [Example 155] | < 1 | 
CCCCN1C(=O)c2ccccc2C(=CCCN2CCC(O)(c3ccc(Cl)cc3)CC2)c2ccccc21 [Example 41, 1-[3-(5-n-Butyl-6,11-dihydro-6-oxo-5H-dibenz[b,e]azepin-11-ylidene)propyl]-4-(4-chlorophenyl)-piperidin-4-ol] | < 1 | 

Compound | IC50 [1] [µM] | IC50 [µM]
4-(4-Chlorophenyl)-1-[3-(5,11-dihydro-7-(2,3-dihydroxy)propyl[1]benzoxepino[2,3-b]pyridin-5-ylidene)propyl]piperidin-4-ol [Example 290] | < 1 | 
Oc1ccc2c(c1)C(=CCCN1CCC(O)(c3ccc(Cl)cc3)CC1)c1ccccc1CO2 [Example 32, 4-(4-Chlorophenyl)-1-[3-(6,11-dihydro-2-hydroxydibenz[b,e]oxepin-11-ylidene)propyl]piperidin-4-ol] | < 1 | 
1-[3-(5,11-Dihydro-7-methoxy[1]benzoxepino[2,3-b]pyridin-5-ylidene)propyl]-4-piperidinopiperidine [Example 66] | < 1000 | 
1-[3-(7-Carboxymethyloxy-5,11-dihydro[1]benzoxepino[2,3-b]pyridin-5-ylidene)propyl]-4-(4-chlorophenyl)piperidin-4-ol [Example 133] | < 1 | 
CC(C)(O)c1ccc2c(c1)C(=CCCN1CCC(N(CCO)Cc3ccc(Cl)cc3)C1)c1cccnc1CO2 (stereo not shown) [Example 554, 2-[5-(3-{3-[(4-Chloro-benzyl)-(2-hydroxy-ethyl)-amino]-pyrrolidin-1-yl}-propylidene)-5,11-dihydro-10-oxa-1-aza-dibenzo[a,d]cyclohepten-7-yl]-propan-2-ol] | < 1 | 
CC(C)(O)c1ccc2c(c1)C(=CCCN1CCC(C#N)(Nc3ccc(Cl)cc3)CC1)c1cccnc1CO2 [Example 464, 4-(4-Chloro-phenylamino)-1-{3-[7-(1-hydroxy-1-methyl-ethyl)-11H-10-oxa-1-aza-dibenzo[a,d]cyclohepten-5-ylidene]-propyl}-piperidine-4-carbonitrile] |  | < 1
CCN(c1ccc(Cl)cc1)[C@@H]1CCN(CCC=C2c3cc(C(C)(C)O)ccc3OCc3ncccc32)C1 [Example 525, (R)-2-[5-(3-{3-[(4-Chloro-phenyl)-ethyl-amino]-pyrrolidin-1-yl}-propylidene)-5,11-dihydro-10-oxa-1-aza-dibenzo[a,d]cyclohepten-7-yl]-propan-2-ol] | < 20 | 
CCC1CN(CCC=C2c3cc(C(C)(C)O)ccc3OCc3ncccc32)CCC1(O)c1ccc(Cl)cc1 (stereo not shown) [Example 471, 4-(4-Chloro-phenyl)-3-ethyl-1-{3-[7-(1-hydroxy-1-methyl-ethyl)-11H-10-oxa-1-aza-dibenzo[a,d]cyclohepten-5-ylidene]-propyl}-piperidin-4-ol] | < 1 | 
OC1(c2ccc(Cl)cc2)CCN(CCC=C2c3ccccc3CSc3ccccc32)CC1 [Example 8, 4-(4-Chlorophenyl)-1-[3-(6,11-dihydro-dibenz[b,e]thiepin-11-ylidene)propyl]piperidin-4-ol] | < 1 | 
Cc1cc(Cl)ccc1C1(O)CCN(CCC=C2c3cc(C(C)(C)O)ccc3OCc3ncccc32)CC1 [Example 490, 4-(4-Chloro-2-methyl-phenyl)-1-{3-[7-(1-hydroxy-1-methyl-ethyl)-11H-10-oxa-1-aza-dibenzo[a,d]cyclohepten-5-ylidene]-propyl}-piperidin-4-ol] | < 1 | 
O=C(O)CN1C(=O)c2ccccc2C(=CCCN2CCC(O)(c3ccc(Cl)cc3)CC2)c2ccccc21 [Example 17, 1-[3-(5-Carboxymethyl-6,11-dihydro-6-oxo-5H-dibenz[b,e]azepin-11-ylidene)propyl]-4-(4-chlorophenyl)-piperidin-4-ol] | < 10 | 
CC1(C)CN(CCC=C2c3cc(OCCN4CCOCC4)ccc3OCc3ncccc32)CCC1(O)c1ccc(Cl)cc1 (stereo not shown) [Example 559, 4-(4-Chloro-phenyl)-3,3-dimethyl-1-{3-[7-(2-morpholin-4-yl-ethoxy)-11H-10-oxa-1-aza-dibenzo[a,d]cyclohepten-5-ylidene]-propyl}-piperidin-4-ol] | < 1 | 
1-(4-Chlorophenylsulfonyl)-4-[3-(5,11-Dihydro-7-methoxy[1]benzoxepino[2,3-b]pyridin-5-ylidene)propyl]piperazine [Example 192] | > 10 | 
1-[3-(7-Carboxy-5,11-dihydro[1]benzoxepino[2,3-b]pyridin-5-ylidene)propyl]-4-(4-chlorophenyl)piperidin-4-ol [Example 118] | < 1 | 
CC(C)(O)c1ccc2c(c1)C(=CCCN1CCC(F)(c3ccc(Cl)cc3)C(O)C1)c1cccnc1CO2 (stereo not shown) [Example 468, 4-(4-Chloro-phenyl)-4-fluoro-1-{3-[7-(1-hydroxy-1-methyl-ethyl)-11H-10-oxa-1-aza-dibenzo[a,d]cyclohepten-5-ylidene]-propyl}-piperidin-3-ol] | < 1 | 

Source: US8653096B2, “Chemokine receptor antagonists and methods of use thereof” (Millennium Pharmaceuticals, Inc., priority 2001, dated 2014)
